This note sets out measurements from ChEMBL document CHEMBL3085629, “Highly functionalized 2-oxopiperazine-based peptidomimetics: an approach to PAR1 antagonists” (2013).

One test has as its system HT-29. The test is described as follows: Cytotoxicity against human HT-29 cells after 48 hrs by sulforhodamine B assay. In kind it is functional. The conditions noted are these: HT-29, 48 h. (In SRB staining, fixed cells bind dye roughly in proportion to their protein.)
The test system of another test is A549. The test is described as follows: Cytotoxicity against human A549 cells after 48 hrs by sulforhodamine B assay. Type of test: functional. The conditions noted are these: A549, 48 h.
Another test deals with MDA-MB-231. The test is described as follows: Cytotoxicity against human MDA-MB-231 cells after 48 hrs by sulforhodamine B assay. Type of test: functional. The conditions noted are these: MDA-MB-231, 48 h.
The target in test [1] is T1, Proteinase-activated receptor 1 (Homo sapiens) (UniProt P25116).
T1 sequence (whole entry): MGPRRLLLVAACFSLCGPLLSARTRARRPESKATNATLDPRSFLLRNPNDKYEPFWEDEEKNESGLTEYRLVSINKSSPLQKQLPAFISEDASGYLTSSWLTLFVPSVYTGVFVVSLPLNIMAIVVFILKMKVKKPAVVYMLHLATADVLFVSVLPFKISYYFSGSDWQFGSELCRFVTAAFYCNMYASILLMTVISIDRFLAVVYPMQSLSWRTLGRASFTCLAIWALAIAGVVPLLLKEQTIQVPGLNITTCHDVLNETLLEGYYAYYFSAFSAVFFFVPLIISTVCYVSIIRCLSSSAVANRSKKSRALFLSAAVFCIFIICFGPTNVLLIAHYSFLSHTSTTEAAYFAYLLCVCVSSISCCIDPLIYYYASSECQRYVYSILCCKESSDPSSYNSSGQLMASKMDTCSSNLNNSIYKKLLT
The experiment in a line: Antagonist activity at PAR1 in human platelet rich plasma assessed as inhibition of SFLLRN-induced platelet aggregation at 150 uM after 5 mins by aggregometric analysis relative to control.

In general, GI50 refers to the concentration that inhibits growth by half. A low value points to more potent growth inhibition. The inhibition is the share of the control response that was lost under treatment.

Activity calls are given as the source filed them. The rule behind the calls is not given here.

With `Cc1c(C)c(S(=O)(=O)/N=C(/N)NCCC[C@H]2C(=O)NC[C@H]([C@H](Cc3cn(C(=O)OC(C)(C)C)c4ccccc34)NC(=O)OC(C)(C)C)N2CC(=O)OC(C)(C)C)c(C)c2c1OC(C)(C)C2`, the 50% growth inhibitory concentration (GI50) stood at 4.98 µM in the test with HT-29, 3.25 µM in the test on A549 and 4.54 µM in the test with MDA-MB-231.
On to `Cc1c(C)c(S(=O)(=O)/N=C(\N)NCCC[C@H]2C(=O)N(Cc3ccccc3)C[C@H]([C@H](Cc3ccccc3)NC(=O)OC(C)(C)C)N2Cc2ccccc2)c(C)c2c1OC(C)(C)C2`, for which the inhibition result in test [1] was “Active”.
As for `CC(C)(C)OC(=O)CN1[C@@H]([C@H](Cc2cn(C(=O)OC(C)(C)C)c3ccccc23)NC(=O)OC(C)(C)C)CN(Cc2ccccc2)C(=O)[C@@H]1CCCCNC(=O)OC(C)(C)C`, the inhibition result in test [1] is “inactive”. Further, the figures for the GI50 with HT-29, in the test with A549 and in the test on MDA-MB-231 were 4.44 µM, more than 10 µM and 1.56 µM, respectively.
`Cc1c(C)c(S(=O)(=O)/N=C(\N)NCCC[C@H]2C(=O)N(Cc3ccccc3)C[C@H]([C@H](Cc3ccccc3)NC(=O)OC(C)(C)C)N2CC(=O)OC(C)(C)C)c(C)c2c1OC(C)(C)C2`: the inhibition entry in test [1] is “Active”.
`Cc1c(C)c(S(=O)(=O)/N=C(/N)NCCC[C@H]2C(=O)NC[C@@H]([C@H](Cc3cn(C(=O)OC(C)(C)C)c4ccccc34)NC(=O)OC(C)(C)C)N2CC(=O)OC(C)(C)C)c(C)c2c1OC(C)(C)C2`: the GI50 with HT-29 was found to be 2.92 µM; in the test on A549 it was 7.68 µM; with MDA-MB-231, 4.87 µM.
Consider `CC(C)(C)OC(=O)NCCCC[C@H]1C(=O)NC[C@H]([C@H](Cc2cn(C(=O)OC(C)(C)C)c3ccccc23)NC(=O)OC(C)(C)C)N1Cc1ccccc1`, for which the inhibition entry in test [1] was “inactive”. Besides, the GI50 in the test with HT-29 was 4.58 µM; in the test with A549 it was 4.86 µM; in the test on MDA-MB-231, 2.92 µM.
The like results for `CC(C)(C)OC(=O)NCCCC[C@@H]1N[C@H]([C@H](Cc2cn(C(=O)OC(C)(C)C)c3ccccc23)NC(=O)OC(C)(C)C)CNC1=O` were, in that order, “inactive”, 5.43 µM, 9.75 µM and 5.31 µM.
With `Cc1c(C)c(S(=O)(=O)/N=C(/N)NCCC[C@H]2C(=O)NC[C@@H]([C@H](Cc3cn(C(=O)OC(C)(C)C)c4ccccc34)NC(=O)OC(C)(C)C)N2Cc2ccccc2)c(C)c2c1OC(C)(C)C2`, the GI50 in the test on HT-29 came to 3.78 µM; with A549, 5.55 µM; in the test with MDA-MB-231, 4.55 µM.
In the case of `CC(C)(C)OC(=O)NCCCC[C@H]1C(=O)NC[C@@H]([C@H](Cc2cn(C(=O)OC(C)(C)C)c3ccccc23)NC(=O)OC(C)(C)C)N1Cc1ccccc1`, in test [1], the inhibition entry is “inactive”. Moreover, the GI50 turned out to be 4.45 µM in the test on HT-29, 5.56 µM in the test on A549 and 4.58 µM in the test with MDA-MB-231.
`Cc1c(C)c(S(=O)(=O)/N=C(\N)NCCC[C@H]2C(=O)N(Cc3ccccc3)C[C@@H]([C@H](Cc3ccccc3)NC(=O)NCc3ccccc3)N2Cc2ccccc2)c(C)c2c1OC(C)(C)C2`: the inhibition in test [1] was 57%.
With `Cc1c(C)c(S(=O)(=O)/N=C(/N)NCCC[C@H]2C(=O)NC[C@H]([C@H](Cc3ccccc3)NC(=O)OC(C)(C)C)N2Cc2ccccc2)c(C)c2c1OC(C)(C)C2`, the GI50 in the test with HT-29 was found to be 5.26 µM; with A549, 1.24 µM; with MDA-MB-231, 6.83 µM.
In the case of `CC(C)(C)OC(=O)NCCCC[C@H]1C(=O)N(Cc2ccccc2)C[C@H]([C@H](Cc2cn(C(=O)OC(C)(C)C)c3ccccc23)NC(=O)OC(C)(C)C)N1Cc1ccccc1`, the inhibition result in test [1] is “inactive”. The GI50 in the test with HT-29 is more than 10 µM; in the test with A549 it was more than 10 µM; in the test with MDA-MB-231, 3.33 µM.
In the case of `CC(C)(C)OC(=O)NCCCC[C@H]1C(=O)N(Cc2ccccc2)C[C@@H]([C@H](Cc2cn(C(=O)OC(C)(C)C)c3ccccc23)NC(=O)OC(C)(C)C)N1Cc1ccccc1`, the inhibition entry in test [1] is “inactive”. The GI50 in the test with HT-29 was 3.83 µM; in the test with A549 it was more than 10 µM; in the test with MDA-MB-231, 1.48 µM.
For the compound `Cc1c(C)c(S(=O)(=O)/N=C(/N)NCCC[C@H]2C(=O)N(Cc3ccccc3)C[C@H]([C@H](Cc3cn(C(=O)OC(C)(C)C)c4ccccc34)NC(=O)OC(C)(C)C)N2Cc2ccccc2)c(C)c2c1OC(C)(C)C2`, the inhibition result in test [1] is “Active”.
`Cc1c(C)c(S(=O)(=O)/N=C(\N)NCCC[C@H]2C(=O)N(Cc3ccccc3)C[C@H]([C@H](Cc3ccccc3)NC(=O)NCc3ccccc3)N2Cc2ccccc2)c(C)c2c1OC(C)(C)C2`: the inhibition entry in test [1] was “Active”.
On to `CC(C)(C)OC(=O)CN1[C@@H]([C@H](Cc2cn(C(=O)OC(C)(C)C)c3ccccc23)NC(=O)OC(C)(C)C)CNC(=O)[C@@H]1CCCCNC(=O)OC(C)(C)C`, for which the inhibition entry in test [1] is “inactive”. Also, the concentration for 50% growth inhibition (GI50) with HT-29 came to 3.09 µM; in the test on A549, 4.57 µM; in the test with MDA-MB-231, 2.29 µM.
`Cc1c(C)c(S(=O)(=O)/N=C(\N)NCCC[C@H]2C(=O)N(Cc3ccccc3)C[C@@H]([C@H](Cc3ccccc3)NC(=O)OC(C)(C)C)N2Cc2ccccc2)c(C)c2c1OC(C)(C)C2`: the inhibition entry in test [1] is “Active”.
For the compound `CC(C)(C)OC(=O)CN1[C@@H](CCCCNC(=O)OC(C)(C)C)C(=O)NC[C@H]1[C@H](Cc1cn(C(=O)OC(C)(C)C)c2ccccc12)NC(=O)OC(C)(C)C`, the inhibition result in test [1] is “inactive”. Further, the figures for the GI50 in the test with HT-29, in the test with A549 and with MDA-MB-231 were 5.78 µM, 8.6 µM and 6.72 µM, respectively.
As to `Cc1c(C)c(S(=O)(=O)/N=C(/N)NCCC[C@H]2C(=O)N(Cc3ccccc3)C[C@@H](CCc3ccccc3)N2Cc2ccccc2)c(C)c2c1OC(C)(C)C2`, the inhibition result in test [1] is “Active”.
`CC(C)(C)OC(=O)NCCCC[C@@H]1N[C@@H]([C@H](Cc2cn(C(=O)OC(C)(C)C)c3ccccc23)NC(=O)OC(C)(C)C)CNC1=O`: the inhibition result in test [1] is “inactive”. Moreover, the concentration for 50% growth inhibition (GI50) with HT-29 is 5.43 µM; with A549, more than 10 µM; in the test on MDA-MB-231, 5.56 µM.
For `Cc1c(C)c(S(=O)(=O)/N=C(/N)NCCC[C@H]2C(=O)N(Cc3ccccc3)C[C@@H]([C@H](Cc3cn(C(=O)OC(C)(C)C)c4ccccc34)NC(=O)OC(C)(C)C)N2CC(=O)OC(C)(C)C)c(C)c2c1OC(C)(C)C2`, the inhibition entry in test [1] was “Active”.
As for `Cc1c(C)c(S(=O)(=O)/N=C(\N)NCCC[C@H]2C(=O)N(Cc3ccccc3)C[C@@H]([C@H](Cc3ccccc3)NC(=O)OC(C)(C)C)N2CC(=O)OC(C)(C)C)c(C)c2c1OC(C)(C)C2`, the inhibition entry in test [1] was “Active”.
The same measure, in the same setting: to `Cc1c(C)c(S(=O)(=O)/N=C(/N)NCCC[C@H]2C(=O)N(Cc3ccccc3)C[C@@H](CCc3cn(C(=O)OC(C)(C)C)c4ccccc34)N2Cc2ccccc2)c(C)c2c1OC(C)(C)C2` belongs “Active”; to `CC(C)(C)OC(=O)CN1[C@@H](CCCCNC(=O)OC(C)(C)C)C(=O)N(Cc2ccccc2)C[C@H]1[C@H](Cc1cn(C(=O)OC(C)(C)C)c2ccccc12)NC(=O)OC(C)(C)C`, “inactive”.
Still for that read-out and setting: to `Cc1c(C)c(S(=O)(=O)/N=C(/N)NCCC[C@H]2C(=O)N(Cc3ccccc3)C[C@H](CCc3ccccc3)N2Cc2ccccc2)c(C)c2c1OC(C)(C)C2` belongs “Active”; to `Cc1c(C)c(S(=O)(=O)/N=C(\N)NCCC[C@H]2C(=O)N(Cc3ccccc3)C[C@H]([C@H](Cc3c[nH]c4ccccc34)NC(=O)NCc3ccccc3)N2Cc2ccccc2)c(C)c2c1OC(C)(C)C2`, “Active”; to `Cc1c(C)c(S(=O)(=O)/N=C(/N)NCCC[C@H]2C(=O)N(Cc3ccccc3)C[C@@H]([C@H](Cc3cn(C(=O)OC(C)(C)C)c4ccccc34)NC(=O)OC(C)(C)C)N2Cc2ccccc2)c(C)c2c1OC(C)(C)C2`, “Active”.
Same read-out and setting: to `Cc1c(C)c(S(=O)(=O)/N=C(/N)NCCC[C@H]2C(=O)N(Cc3ccccc3)C[C@H]([C@H](Cc3cn(C(=O)OC(C)(C)C)c4ccccc34)NC(=O)OC(C)(C)C)N2CC(=O)OC(C)(C)C)c(C)c2c1OC(C)(C)C2` belongs “Active”.
With `Cc1c(C)c(S(=O)(=O)/N=C(/N)NCCC[C@H]2C(=O)NC[C@@H]([C@H](Cc3ccccc3)NC(=O)OC(C)(C)C)N2Cc2ccccc2)c(C)c2c1OC(C)(C)C2`, the GI50 was 3.29 µM in the test on HT-29, 5.39 µM in the test on A549 and 6.04 µM in the test with MDA-MB-231.
Consider `Cc1c(C)c(S(=O)(=O)/N=C(\N)NCCC[C@H]2C(=O)N(Cc3ccccc3)C[C@@H]([C@H](Cc3c[nH]c4ccccc34)NC(=O)NCc3ccccc3)N2Cc2ccccc2)c(C)c2c1OC(C)(C)C2`, for which, in test [1], the inhibition entry was “Active”.
`COc1cccc2c1C(=O)c1c(O)c3c(c(O)c1C2=O)C[C@@](O)(C(=O)CO)C[C@@H]3O[C@H]1C[C@H](N)[C@H](O)[C@H](C)O1` [DOXORUBICIN]: the figures for the concentration for 50% growth inhibition (GI50) in the test on HT-29, with A549 and with MDA-MB-231 were 0.1 µM, 0.07 µM and 0.09 µM, respectively.
`Cc1c(C)c(S(=O)(=O)/N=C(/N)NCCC[C@H]2C(=O)N(Cc3ccccc3)C[C@H](CCc3cn(C(=O)OC(C)(C)C)c4ccccc34)N2Cc2ccccc2)c(C)c2c1OC(C)(C)C2`: the inhibition entry in test [1] is “Active”.
For `Cc1c(C)c(S(=O)(=O)/N=C(/N)NCCC[C@H]2C(=O)NC[C@H]([C@H](Cc3cn(C(=O)OC(C)(C)C)c4ccccc34)NC(=O)OC(C)(C)C)N2Cc2ccccc2)c(C)c2c1OC(C)(C)C2`, the GI50 turned out to be 3.78 µM in the test with HT-29, 4.89 µM with A549 and 4.44 µM with MDA-MB-231.
